Experiment [1] is described as follows: ABTS method, ABTS+. free radical scavenging. The following applies: 25° C., 5 min, 730 nm, from linear equation of scavenging rate vs concentration; read-out: IC50 for scavenging ABTS^+. free radicals. The method, then: Determination of […]. free radical ion scavenging capacity of the blank sample: at 25° C., 2.9 mL ABTS^+. free radical ion working solution was added into a 10 mL sample tube, 100 μL DMSO was added, after reacting for 5 min, the UV-vis spectrum was measured, and the absorption intensity A0 at 730 nm was recorded.
Determination of ABTS^+. free radical ion scavenging capacity of the samples: at 25° C., 2.9 mL ABTS^+. free radical ion working solution was added into a 10 mL sample tube, 100 μL samples of different concentrations that were dissolved in DMSO were added, after reacting for 5 min, the UV-vis spectrum was measured, and the absorption intensity A1 at 730 nm was recorded, and the ABTS^+. free radical ion scavenging rate was calculated according to Formula 4.
The ABTS^+. free radical scavenging capacities of the Ame and the Ame-Zn complex are concentration dependent. Within a certain range, the scavenging rate is linear with the concentration. The curve of the scavenging rate and the concentration (c) is plotted in the present invention to obtain a corresponding linear equation, and the maximum half-inhibitory concentration (IC50 value) is calculated.

The next experiment relates to herring sperm DNA (fDNA). Put plainly: Interaction with fDNA by UV-vis spectroscopy, fluorescence spectroscopy and viscosity method. It is filed as binding. Conditions: UV-vis, fluorescence (fDNA-EB system), viscosity. The source says:
UV-vis spectroscopy, fluorescence spectroscopy and viscosity method are used to study the interaction between the Ame/Ame-Zn complex and herring sperm DNA (fDNA) to further reveal the mechanism of antitumor activity, the obtained spectra are shown in FIGS. 7-11. […] Thereby, it can be speculated that the mechanism of antitumor activity of the Ame and its complex may be that Ame or the complex thereof enters the interior of the cell and intercalates with the DNA strand to cause apoptosis. Since the interaction of the complex with DNA is stronger than of the Ame, the antitumor activity thereof is also stronger than of the Ame.

Experiment [2] is described as follows: Pyrogallol auto-oxidation method, O2-. free radical scavenging. The following applies: Tris-HCl pH 8.20, 25° C., 322 nm, read-out: IC50 to scavenge O2^−. free radical. The procedure: The free radical scavenging effects of the Ame and the Ame-Zn complex were studied by pyrogallol auto-oxidation method and ABTS method with the following steps:
(1) Pyrogallol Auto-Oxidation Method
Determination of auto-oxidation rate V0 of pyrogallol: 2 mL Tris-HCl buffer (pH=8.20) was added to a 10 mL sample tube at 25° C., 100 μL DMSO was added as a control, after adding 0.8 mL distilled water, 0.2 mL pyrogallol solution having a concentration of 2 mmol·L^−1 was added, the mixture was poured into a cuvette after mixing uniformly, the absorbance at 322 nm was measured with pure water as a blank, the A value was recorded every 10 s for a total of 4 min, linear regression was performed with t as the abscissa, and A as the ordinate, straight line slope thereof is V0, and the measurement was performed for three times to obtain an average value. […]

On to `O=c1cc(-c2ccc(O)c(-c3c(O)cc(O)c4c(=O)cc(-c5ccc(O)cc5)oc34)c2)oc2cc(O)cc(O)c12` [Ame, amentoflavone], for which the concentration for half-maximal inhibition (IC50) – broadly, the concentration that inhibits the measured activity by half – was found to be 20.7 µM in experiment [1] and 23.3 µM in experiment [2]. The “manner of interaction with fDNA” value in the experiment on herring sperm DNA (fDNA) is reported as “intercalation manner”.

(Values after patent US10815254B2, “Biflavone-zinc complex, preparation method and application thereof” (NANJING FORESTRY UNIVERSITY, priority 2017, dated 2020).)
